Experimental data published in article PMC8746493, “Co-Inhibition of P-gp and Hsp90 by an Isatin-Derived Compound Contributes to the Increase of the Chemosensitivity of MCF7/ADR-Resistant Cells to Doxorubicin” (Molecules, 2021).

Biological target: T1, Hsp90α (Homo sapiens, UniProt P07900)
T1 construct: gene HSP90AA1; full length protein
Test: SPR (Biacore […], immobilized recombinant Hsp90α)
Type: binding

O=C(CN1C(=O)NC(c2ccccc2)(c2ccccc2)C1=O)NN=C1C(=O)Nc2ccc(F)cc21 [compound 16, HAA2021]
Kd: 41.2 ± 2.1 nM
